Data taken from patent US7531534B2, “Heterocyclic antiviral compounds” (Roche Palo Alto LLC, priority 2006, dated 2009).

Tested on: Renilla luciferase HCV replicon cells (2209-23)
Test: Renilla luciferase Assay (HCV replicon)
Type: cell-based
Details: Huh-7, 72 h; replicon cells 2209-23 (Huh7), three days incubation; read-out: R. luciferase Activity IC50

Compound	IC50 [nM]
CC(C)(C)[C@H]1C(O)=C(C2=C(Cl)S(=O)(=O)c3cc(NS(C)(=O)=O)ccc3N2)C(=O)N1Cc1ccc(F)cc1 [Compound I-3, N-{3-[(S)-5-tert-Butyl-1-(4-fluoro-benzyl)-4-hydroxy-2-oxo-2,5-dihydro-1H-pyrrol-3-yl]-2-chloro-1,1-dioxo-1,4-dihydro-1λ^6-benzo[1,4]thiazin-7-yl}-methanesulfonamide]	4
Cc1cc(CN2C(=O)C(C3=C(F)S(=O)(=O)c4cc(NS(C)(=O)=O)ccc4N3)=C(O)[C@@H]2C(C)(C)C)ccc1F [Compound I-18, N-{3-[(S)-5-tert-Butyl-1-(4-fluoro-3-methyl-benzyl)-4-hydroxy-2-oxo-2,5-dihydro-1H-pyrrol-3-yl]-2-fluoro-1,1-dioxo-1,4-dihydro-1λ^6-benzo[1,4]thiazin-7-yl}-methanesulfonamide]	16
CC(C)(C)C1C(O)=C(C2=C(C#N)S(=O)(=O)c3cc(NS(C)(=O)=O)ccc3N2)C(=O)N1Cc1ccc(F)cc1 (stereo not shown) [Compound I-19, N-{3-[5-tert-Butyl-1-(4-fluoro-benzyl)-4-hydroxy-2-oxo-2,5-dihydro-1H-pyrrol-3-yl]-2-cyano-1,1-dioxo-1,4-dihydro-1λ^6-benzo[1,4]thiazin-7-yl}-methanesulfonamide]	16

Tested on: HCV
Test: not given
Details: ribavirin monotherapy; cited from earlier work

Compound	patients in whom serum amino transferase levels are reduced to normal [%]
NC(=O)c1ncn([C@@H]2O[C@H](CO)[C@@H](O)[C@H]2O)n1 [ribavirin, 1-((2R,3R,4S,5R)-3,4-Dihydroxy-5-hydroxymethyl-tetrahydro-furan-2-yl)-1H-[1,2,4]triazole-3-carboxylic acid amide]	40

Biological target: T1, HCV NS5B570n-BK (Hepatitis C virus genotype 1b, UniProt P26663)
T1 construct: histidine tag (N); made in house; host or cells: E. coli strain M15
Test: HCV NS5B RNA Polymerase Activity
Type: biochemical
Details: not given
Description: The enzymatic activity of HCV NS5B570n-BK is measured as incorporation of radiolabeled nucleotide monophosphates into acid insoluble RNA products. Unincorporated radiolabel substrate is removed by filtration and scintillant is added to the washed and dried filter plate containing radiolabeled RNA product. The light emitted by the scintillant is proportional to the amount of RNA product generated by NS5B570n-BK at the endpoint of the reaction.
The N-terminally histidine tagged HCV polymerase, derived from HCV BK strain, genotype 1b (NS5B570n-BK) contains a 21 amino acid deletion at the C-terminus relative to the full-length HCV polymerase and is purified from E. coli strain M15. The construct containing the coding sequence of HCV BK strain amino acid residues 2421-2999 (GenBank accession number M58335) downstream of a […] promoter expression cassette was inserted into plasmid constructs. The plasmid constructs are transformed in E. coli and colonies are inoculated and grown overnight in 10 L of Terrific broth (Tartoff and Hobbs) supplemented with 100 μg/mL ampicillin at 37° C. Protein expression is induced by addition of 1 mM isopropyl-β-D-thiogalactopyranoside (IPTG), when optical densities reaches between 1.5 and 3.5 OD600 and the culture is then incubated for 16- to 18 h at 22° C. NS5B570n-BK is purified to homogeneity using a three step protocol including subsequent column chromatography on Ni-NTA, SP-Sepharose HP and Superdex 75 resins. […]
The amount of light emitted from the scintillant is converted to counts per minute (CPM) on a Topcount® plate reader (Perkin-Elmer, Energy Range: Low, Efficiency Mode: Normal, Count Time: 1 min, Background Subtract: none, Cross talk reduction: Off).
Data is analyzed with GraphPad® Prism® and/or Microsoft® Excel®. […] All data is expressed as a percentage of the positive control. […]

T1 sequence (P26663 2420-2989): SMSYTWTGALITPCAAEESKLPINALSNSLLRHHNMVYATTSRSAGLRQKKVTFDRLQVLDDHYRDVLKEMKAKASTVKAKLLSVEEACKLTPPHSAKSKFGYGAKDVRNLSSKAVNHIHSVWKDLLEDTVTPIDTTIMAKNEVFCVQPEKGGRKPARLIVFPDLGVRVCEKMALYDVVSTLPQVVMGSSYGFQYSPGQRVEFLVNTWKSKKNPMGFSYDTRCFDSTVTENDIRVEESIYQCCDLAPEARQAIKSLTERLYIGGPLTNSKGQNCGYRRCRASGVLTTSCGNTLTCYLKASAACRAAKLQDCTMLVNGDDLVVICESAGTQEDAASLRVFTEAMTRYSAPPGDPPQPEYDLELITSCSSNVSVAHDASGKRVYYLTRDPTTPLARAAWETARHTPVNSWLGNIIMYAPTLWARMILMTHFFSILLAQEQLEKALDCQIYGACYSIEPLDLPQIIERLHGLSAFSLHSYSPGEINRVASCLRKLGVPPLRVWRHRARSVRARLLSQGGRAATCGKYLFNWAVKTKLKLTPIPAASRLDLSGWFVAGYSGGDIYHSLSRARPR

Compound	IC50 [nM]
CC(C)(C)[C@H]1C(O)=C(C2=C(Cl)S(=O)(=O)c3cc(NS(C)(=O)=O)ccc3N2)C(=O)N1Cc1ccc(F)cc1 [Compound I-3, N-{3-[(S)-5-tert-Butyl-1-(4-fluoro-benzyl)-4-hydroxy-2-oxo-2,5-dihydro-1H-pyrrol-3-yl]-2-chloro-1,1-dioxo-1,4-dihydro-1λ^6-benzo[1,4]thiazin-7-yl}-methanesulfonamide]	2
CC(C)(C)C1C(O)=C(C2=C(C#N)S(=O)(=O)c3cc(NS(C)(=O)=O)ccc3N2)C(=O)N1Cc1ccc(F)cc1 (stereo not shown) [Compound I-19, N-{3-[5-tert-Butyl-1-(4-fluoro-benzyl)-4-hydroxy-2-oxo-2,5-dihydro-1H-pyrrol-3-yl]-2-cyano-1,1-dioxo-1,4-dihydro-1λ^6-benzo[1,4]thiazin-7-yl}-methanesulfonamide]	6

Same assay, conditions: NS5B570n-BK, poly A:oligo U16, tritiated UTP incorporation; read-out: Polymerase Assay IC50

Compound	IC50 [nM]
Cc1cc(CN2C(=O)C(C3=C(F)S(=O)(=O)c4cc(NS(C)(=O)=O)ccc4N3)=C(O)[C@@H]2C(C)(C)C)ccc1F [Compound I-18, N-{3-[(S)-5-tert-Butyl-1-(4-fluoro-3-methyl-benzyl)-4-hydroxy-2-oxo-2,5-dihydro-1H-pyrrol-3-yl]-2-fluoro-1,1-dioxo-1,4-dihydro-1λ^6-benzo[1,4]thiazin-7-yl}-methanesulfonamide]	5

Tested on: not given
Test: not given
Details: not given

melting point [°C]	Compound
125 to 165	CCS(=O)(=O)Nc1ccc2c(c1)S(=O)(=O)C(Cl)=C(C1=C(O)[C@H](C(C)(C)C)N(CCC(C)C)C1=O)N2
148 to 152	CC(C)(C)[C@H]1C(O)=C(C2=C(Cl)S(=O)(=O)c3cc(NS(C)(=O)=O)ccc3N2)C(=O)N1Cc1ccccc1
137 to 141	CC(C)(C)[C@H]1C(O)=C(C2=C(Cl)S(=O)(=O)c3cc(NS(C)(=O)=O)ccc3N2)C(=O)N1CCC1CCCC1
142 to 145	CC(C)CCN1C(=O)C(C2=C(Cl)S(=O)(=O)c3cc(NS(C)(=O)=O)ccc3N2)=C(O)[C@@H]1C(C)(C)C
> 250	CC(C)CCN1C(=O)C(C2=C(C#N)S(=O)(=O)c3cc(NS(C)(=O)=O)ccc3N2)=C(O)C1C(C)(C)C (stereo not shown)
> 250	CC(C)(C)C1C(O)=C(C2=C(C#N)S(=O)(=O)c3cc(NS(C)(=O)=O)ccc3N2)C(=O)N1CCC1CCCC1 (stereo not shown)
210 to 215	CC1=C(C2=C(O)[C@H](C(C)(C)C)N(CCC(C)C)C2=O)Nc2ccc(NS(C)(=O)=O)cc2S1(=O)=O
140 to 146	Cc1cc(CN2C(=O)C(C3=C(Cl)S(=O)(=O)c4cc(NS(C)(=O)=O)ccc4N3)=C(O)[C@@H]2C(C)(C)C)ccc1F
147 to 151	CC(C)(C)[C@H]1C(O)=C(C2=C(Cl)S(=O)(=O)c3cc(NS(C)(=O)=O)ccc3N2)C(=O)N1Cc1ccc(F)c(Cl)c1

More lines, now with the values behind:

Compound	melting point [°C]
CC1=C(C2=C(O)[C@H](C(C)(C)C)N(Cc3ccc(F)cc3)C2=O)Nc2ccc(NS(C)(=O)=O)cc2S1(=O)=O	170 to 174
CCS(=O)(=O)Nc1ccc2c(c1)S(=O)(=O)C(Cl)=C(C1=C(O)[C@H](C(C)(C)C)N(Cc3ccc(F)c(Cl)c3)C1=O)N2	140 to 144
CC(C)(C)[C@H]1C(O)=C(C2=C(Cl)S(=O)(=O)c3cc(NS(=O)(=O)C4CC4)ccc3N2)C(=O)N1Cc1ccc(F)c(Cl)c1	137 to 141
COc1cc(CN2C(=O)C(C3=C(Cl)S(=O)(=O)c4cc(NS(C)(=O)=O)ccc4N3)=C(O)[C@@H]2C(C)(C)C)ccc1F	139 to 144
CN(C)C(=O)C1=C(C2=C(O)[C@H](C(C)(C)C)N(Cc3ccc(F)cc3)C2=O)Nc2ccc(NS(C)(=O)=O)cc2S1(=O)=O	140
COc1cc(CN2C(=O)C(C3=C(C#N)S(=O)(=O)c4cc(NS(C)(=O)=O)ccc4N3)=C(O)C2C(C)(C)C)ccc1F (stereo not shown)	218
Cc1cc(CN2C(=O)C(C3=C(C#N)S(=O)(=O)c4cc(NS(C)(=O)=O)ccc4N3)=C(O)C2C(C)(C)C)ccc1F (stereo not shown)	> 250
CC(C)CCN1C(=O)C(C2=C(C(N)=O)S(=O)(=O)c3cc(NS(C)(=O)=O)ccc3N2)=C(O)[C@@H]1C(C)(C)C	150 to 155
Cc1cc(CN2C(=O)C(C3=C(C(N)=O)S(=O)(=O)c4cc(NS(C)(=O)=O)ccc4N3)=C(O)[C@@H]2C(C)(C)C)ccc1F	168 to 172
CC(C)(C)[C@H]1c2oc(=O)c3c(c2C(=O)N1Cc1ccc(F)cc1)Nc1ccc(NS(C)(=O)=O)cc1S3(=O)=O	120
CCS(=O)(=O)Nc1ccc2c(c1)S(=O)(=O)C(Cl)=C(C1=C(O)[C@H](C(C)(C)C)N(Cc3ccc(F)cc3)C1=O)N2	136 to 140
CC(C)(C)[C@H]1C(O)=C(C2=C(Cl)S(=O)(=O)c3cc(NS(=O)(=O)C4CC4)ccc3N2)C(=O)N1Cc1ccc(F)cc1	137 to 141
CCS(=O)(=O)Nc1ccc2c(c1)S(=O)(=O)C(Cl)=C(C1=C(O)[C@H](C(C)(C)C)N(Cc3ccc(F)c(C)c3)C1=O)N2	130 to 135
Cc1cc(CN2C(=O)C(C3=C(Cl)S(=O)(=O)c4cc(NS(=O)(=O)C5CC5)ccc4N3)=C(O)[C@@H]2C(C)(C)C)ccc1F	127 to 131
CC(C)(C)[C@H]1C(O)=C(C2=C(Cl)S(=O)(=O)c3cc(NS(C)(=O)=O)ccc3N2)C(=O)N1Cc1ccc(F)cc1 [Compound I-3, N-{3-[(S)-5-tert-Butyl-1-(4-fluoro-benzyl)-4-hydroxy-2-oxo-2,5-dihydro-1H-pyrrol-3-yl]-2-chloro-1,1-dioxo-1,4-dihydro-1λ^6-benzo[1,4]thiazin-7-yl}-methanesulfonamide]	144 to 148
